Marks after values point to notes of the source that are not given here.
Experiments:
Format in all cases: cell-based
[1] = system: normal human fibroblasts; assay: Proliferation of normal human fibroblasts treated with supernatant of treated keratinocytes (Cell Proliferation ELISA, BrdU); conditions: supernatant on fibroblasts 48 hrs
Experimental: This experiment evaluated the proliferation of normal human fibroblasts (dermal primocultures) after 48 hours of treatment with supernatant transferred from human keratinocytes.
The “Cell Proliferation ELISA, BrdU” test quantifies cell proliferation by measuring incorporation of bromodeoxyuridine (BrdU) during DNA synthesis followed by luminescence detection.
Cells were placed in the presence of the treatment for a specified time (incubator at 37° C., 5% CO2). The pyrimidine analogue 5-bromo-2′-deoxyuridine (BrdU) was then added and the cells were further incubated (37° C., 5% CO2) for a minimum of 2 hours, during which time BrdU is incorporated in place of thymidine into the DNA of proliferating cells.
The culture medium was removed, then the cells were fixed and the DNA denatured at the same time (antibody accessibility). An anti-BrdU-POD (peroxidase) antibody was added; this antibody binds to BrdU in newly synthesized DNA. The immune complex was then detected by addition of luminol substrate with measurement of luminescence (Genios, Tecan).
NHF were seeded at a density of 5,000 cells/well in E-199 culture medium (Gibco® Invitrogen) in a 96-well Optilux white plate (BD Falcon 353947). The plate was placed in a humid incubator (37° C., 5% CO2) for 24 hours.
The different products at the respective concentrations (diluted in KSFM culture medium, 600 μl) were contacted with NHK cells for 48 hours. Control cells were left untreated. Each treatment conditions was evaluated on three wells of NHK cells.
After 48 hours, a fraction of the NHK cell supernatant was removed. Each sample of supernatant (2 times 100 μl) from a well on the NHK plate (24 wells) was transferred to two wells in the NHF plate already containing 100 μl of E-199 medium per well. […]
Cell proliferation was quantified by the method described in the “Cell Proliferation ELISA, BrdU” kit (Roche Applied Science No. 11669915001). This is an immunological assay with luminescence detection (Genios, Tecan).
The means of the luminescence values (RLU/s) of six wells with the same treatment condition were determined. […] Proliferation of treated cells was expressed as a percentage of the control(untreated cells−100%)(OD treated/OD control×100).

[2] = system: acid GAGs in the papillary dermis; assay: Acid glycosaminoglycan (GAG) content of human skin explants (alcian blue staining, image analysis)
Experimental: (§1) In particular, the following parameters were evaluated: • general skin morphology after staining with Masson trichrome, • acid glycosaminoglycan (GAG) content after alcian blue staining, • expression level of the hyaluronic acid CD44 receptor after immunolabeling of this receptor.
(§2) Thirty-three explants (approximately 10 mm in diameter) were taken from a person (P712AB36) undergoing abdominoplasty. The explants were divided into 11 groups of three explants and placed in special skin explant survival medium.
(§3) RetinOx+Day cream was applied on the explants at 1 mg/cm^2 on days D0, D2, D3, D6 and D8.
(§4) On D0, D2, D3, D6 and D8, 30 μA of products P1, P2 and P3 were deposited on filter paper disks placed on the explants.
(§5) On D0, the three explants in group CO were sampled and cut in two. One-half was fixed in ordinary Bouin's solution and the other half stored at −80° C. On D6 and D10, three explants from each group were sampled and treated in the same manner.
After 48 hours of fixing in ordinary Bouin's solution, samples were dried and impregnated in paraffin using a Leica 1020 automated tissue processor, then embedded according to operating procedure MO-H-153 using a Leica EG 1160 embedding station. 5 μm sections were prepared according to operating procedure MO-H-173 using a Leica RM 2125 Minot microtome and mounted on Superfrost® histologic glass microscope slides.
Acid GAGs were visualized with alcian blue staining. They were present throughout the papillary dermis.
In this zone, the GAGs under study are stained blue and correspond to acid GAGs.
The intensity of staining was quantified by image analysis.
Acid GAGs were quantified by image analysis. The results are expressed as the percentage of the analyzed area in Table 10 below.

[3] = system: normal human fibroblasts; assay: Hyaluronic acid production by normal human fibroblasts treated with supernatant of treated keratinocytes (HA-ELISA); conditions: supernatant on fibroblasts 48 hrs; for % stimulation of hyaluronic acid synthesis: vs Control
Experimental: Normal human dermal fibroblasts were cultured to confluence. Cells were treated for 48 hours with supernatants of normal human keratinocytes previously grown in the presence of the test products. The fibroblast supernatants, containing hyaluronic acid, were collected and assayed immediately. Hyaluronic acid was quantified with an ELISA microtiter plate. Protein content was determined for each well of the microtiter plate.
(§6) Primocultures of normal human keratinocytes (NHK) were obtained from cells isolated from skin specimens from plastic surgery.
(§7) NHK were seeded at a density of 130,000 cells/well in specific KSFM culture medium (Gibco®, Invitrogen) in a 24-well plate. The plate was placed in a humid incubator (37° C., 5% CO2) for 24 hours.
Primocultures of normal human fibroblasts (NHF) were obtained from cells isolated from skin specimens from plastic surgery.
NHF were seeded at a density of 90,000 cells/well in E-199 culture medium supplemented with 0.5% FCS (Gibco® Invitrogen) in a 24-well plate. The plate was placed in a humid incubator (37° C., 5% CO2) for 24 hours.
The two cell types—NHK and NHF—were plated 48 hours apart.
The different products at the respective concentrations (diluted in KSFM medium, 600 μl) were contacted with NHK cells for 48 hours. Untreated cells were used as the control condition. Two plates were used to separately test NAG, and NAG+vitamin A propionate, on the one hand, and NAG6P, and NAG6P+vitamin A propionate, on the other hand.
(§8) Each treatment condition was evaluated on three wells of NHK cells.
After 48 hours, a fraction of NHK cell supernatant (300 μl/well) was removed and transferred well for well into NHF cell supernatants (300 μl E-199/well−fresh medium without FCS).
This gave a final volume of 600 μl/well (50:50 ratio of KSFM/E-199 medium) which remained on the NHF cells for 48 hours.
After 48 hours of treatment, the NHF cell supernatant was collected and centrifuged.
Hyaluronic acid was assayed in the cell supernatants as described in example 1.
(§9) The assay was performed in duplicate for each well.
(§10) Optical densities (OD) measured on each sample were plotted on a graph (specific standard curve in the kit). The hyaluronic acid concentration was expressed in ng/ml.
(§11) The amount of hyaluronic acid released by the cells was determined for each well and for each treatment condition, relative to the cell content expressed as μg of protein. Thus, the final result was expressed as ng/ml of hyaluronic acid per μg of protein.
A mean value was calculated for wells treated with the same concentration of test product. This mean was compared with the mean of the control wells (Student t test−comparison of means−significant difference at 95% if p<0.05* and at 99% if p<0.01**).
(§12) The percent stimulation induced by the test products was determined by comparing the mean values of the control and treatment conditions: % Stimulation=(Treated−Control)/Control

[4] = system: hyaluronic acid CD44 receptor; assay: Expression of the hyaluronic acid CD44 receptor in human skin explants (immunolabeling)
Experimental: as §1, §2, §3, §4, §5
Frozen sections were labeled for the CD44 receptor using mouse anti-CD44 monoclonal antibody (Invitrogen MHC D4400) at 1:100 dilution incubated for 1 hour at room temperature with a biotin/streptavidin amplifier system with FITC. Nuclei were counterstained with propidium iodide.

[5] = system: normal human keratinocytes; assay: Hyaluronic acid production by normal human keratinocytes (HA-ELISA of supernatant); conditions: for % stimulation of hyaluronic acid synthesis: vs Control
Experimental: Normal human keratinocytes were cultured to confluence. Cells were treated with the test products for 48 hours. The supernatants, containing hyaluronic acid, were collected and assayed immediately. Hyaluronic acid was quantified with an ELISA microtiter plate.
as §6, §7
The different products at the respective concentrations (diluted in KSFM medium, 600 μl) were contacted with the cells for 48 hours. Untreated cells were used as the control condition.
as §8
After 24 hours of treatment, an intermediate sample of […] of supernatant was removed from each well and the plate returned to the incubator (37° C., 5% CO2).
After 48 hours of treatment, the remaining supernatant (≈350 μA) was collected and centrifuged.
Cell supernatants were assayed according to the method described in the Hyaluronan Enzyme-Linked Immunosorbent Assay kit (HA-ELISA, Echelon Biosciences Inc.). This is an ELISA assay with spectrophotometric detection at 405 nm (Safire, Tecan).
as §9, §10, §11
A mean value was calculated for wells treated with the same concentration of test product. This mean was compared with the mean of the control wells (Student t test−comparison of means−significant difference at 95% if p<0.05* and at 99% if p<0.01*).
as §12
The vitamin A propionate was dissolved in DMSO.

Q: How did the RLU ([1]; 5 mM on keratinocytes 48 hrs) turn out when `CC(=O)N[C@H]1C(O)O[C@H](COP(=O)(O)O)[C@@H](O)[C@@H]1O` (stereo partly shown) [NAG6P, N-acetylglucosamine-6-phosphate] was run?
A: Its RLU is 4985 ± 184 RLU.

Q: What about the RLU ([1]; 10 mM on keratinocytes 48 hrs) of the same compound?
A: The RLU was 4903 ± 377 RLU.

Q: And the “Acid GAGs, visual analysis” value ([2]; D6, NAG6P 1% to 0.01%)?
A: Its value is “moderate along the DEJ and present throughout the papillary dermis, in a dose-dependent manner”.

Q: And the “Percentage of area occupied by acid GAGs in the papillary dermis, % of analyzed area, Mean” value (from here on “Percentage … % of analyzed area, Mean”) ([2]; D10, NAG6P 0.01%)?
A: The value was 14.0%.

Q: And the “Percentage … % of analyzed area, Mean” value ([2]; D10, NAG6P 0.1%)?
A: Its value is 16.3%.

Q: And the “Percentage … % of analyzed area, Mean” value ([2]; D10, NAG6P 1%)?
A: Its value is 21.0%.

Q: What about the “Acid GAGs, visual analysis” value ([2]; D10, NAG6P 1% to 0.01%) of the same compound?
A: Its value is “moderately present along the DEJ and throughout the papillary dermis, in a dose-dependent manner”.

Q: What about the “Hyaluronic acid” value ([3]; 5 mM on keratinocytes 48 hrs) of the same compound?
A: Its value is 3524.1 ± 198.6 ng/mL.

Q: And the “Hyaluronic acid (ng/ml/μg prot.)” value ([3]; 5 mM on keratinocytes 48 hrs)?
A: Its value is 401.7 ± 38.3 ng/ml/μg prot.

Q: And the “% stimulation of hyaluronic acid synthesis” value (“% stimulation” below) ([3]; 5 mM on keratinocytes 48 hrs)?
A: The value was 7%.

Q: What about the “Hyaluronic acid” value ([3]; 10 mM on keratinocytes 48 hrs) of the same compound?
A: The value was 3507.6 ± 213.3 ng/mL.

Q: What about the “Hyaluronic acid (ng/ml/μg prot.)” value ([3]; 10 mM on keratinocytes 48 hrs) of the same compound?
A: The value was 382.9 ± 20.5 ng/ml/μg prot.

Q: And the “% stimulation” value ([3]; 10 mM on keratinocytes 48 hrs)?
A: The value was 2%.

Q: What about the CD44 expression ([4]; D6, NAG6P 0.01%) of the same compound?
A: Its CD44 expression is “overexpression was very moderate”.

Q: What about the CD44 expression ([4]; D6, NAG6P 0.1%) of the same compound?
A: Its CD44 expression is “mildly overexpressed”.

Q: What about the CD44 expression ([4]; D6, NAG6P 1%) of the same compound?
A: The CD44 expression was “mildly overexpressed”.

Q: What about the CD44 expression ([4]; D10, NAG6P 0.01%, epidermis and papillary dermis) of the same compound?
A: Its CD44 expression is “overexpression was very clear”.

Q: And the “Hyaluronic acid” value ([5]; 5 mM, 48 hrs)?
A: The value was 1817.9 ± 145.1 ng/mL.

Q: And the “Hyaluronic acid (ng/ml/μg prot.)” value ([5]; 5 mM, 48 hrs)?
A: The value was 122.1 ± 25.6 ng/ml/μg prot.

Q: And the “% stimulation” value ([5]; 5 mM, 48 hrs)?
A: Its value is 73%*.

Q: What about the “Hyaluronic acid” value ([5]; 10 mM, 24 hrs) of the same compound?
A: Its value is 1067.3 ± 111.9 ng/mL.

Q: What about the “% stimulation” value ([5]; 10 mM, 24 hrs) of the same compound?
A: Its value is 35%*.

Q: What about the “% stimulation” value ([5]; 10 mM, 24 hrs, listed as N-acetylglucosamine-6-phosphate) of the same compound?
A: The value was 35%.

Q: And the “Hyaluronic acid” value ([5]; 10 mM, 48 hrs)?
A: Its value is 2503.2 ± 552.8 ng/mL.

Q: And the “Hyaluronic acid (ng/ml/μg prot.)” value ([5]; 10 mM, 48 hrs)?
A: The value was 165.7 ± 32.4 ng/ml/μg prot.

Q: And the “% stimulation” value ([5]; 10 mM, 48 hrs)?
A: The value was 135%**.

Q: And the “% stimulation” value ([5]; 10 mM, 48 hrs, listed as N-acetylglucosamine-6-phosphate)?
A: Its value is 135%.

Q: And the “Hyaluronic acid” value ([5]; 20 mM, 48 hrs)?
A: The value was 3076 ± 260.8 ng/mL.

Q: What about the “Hyaluronic acid (ng/ml/μg prot.)” value ([5]; 20 mM, 48 hrs) of the same compound?
A: Its value is 269.6 ± 55.3 ng/ml/μg prot.

Q: And the “% stimulation” value ([5]; 20 mM, 48 hrs)?
A: The value was 282%**.

Q: And the “% stimulation” value ([5]; 20 mM, 48 hrs, listed as N-acetylglucosamine-6-phosphate)?
A: Its value is 282%.

From patent US9907760B2 (LIBRAGEN, priority 2010, dated 2018)
